Laboratory results from patent publication US20060122152A1, “Heparin for the treatment of ocular pathologies” (priority 2004, published 2006).

How the values were obtained:
[1] = tested on: corneal neovascularization; experiment: Silver nitrate cauterization, two drug combinations, percentage area of corneal neovascularization (Example 3); format: in vivo, Long Evans rats; conditions: for effect on corneal neovascularization as individual agents (in words): flurbiprofen 0.03% w/v, LMWH 10 mg/ml, data not shown
Source text: Artificial corneal burns were induced in thirty-two eyes belonging to thirty-two Long Evans rats to determine the effects of doxycycline or another tetracycline derivative and low molecular weight heparin, doxycycline or another tetracycline derivative, and flurbiprofen, or flurbiprofen and low molecular weight heparin, on corneal neovascularization. All the eyes were examined to exclude any eyes with corneal scars and/or neovascularization prior to induction.
Neovascularization was induced in all eyes using silver nitrate cauterization. The animals were first anesthetized by intraperitoneal injection of a mixture of ketamine hydrochloride (25 mg/kg) with xylazine hydrochloride (5 mg/kg). The cornea was then anesthetized by a drop of 0.5% proparacaine and allowed to dry.
Group 1 (number of animals, n=8) received a 1:1 combination of 0.03% flurbiprofen sodium ophthalmic solution (Allergan, Irvine Calif.) and 10 mg/ml low molecular weight heparin (Enoxaparin, Aventis Pharmaceuticals Inc., Bridgewater N.J.); an actual concentration of 0.015% flurbiprofen with 5 mg/ml low molecular weight heparin. […] Group 3 (n=8) received a 1:1 combination of 20 mg/ml doxycycline and 10 mg/ml low molecular weight heparin; an actual concentration of 10 mg/ml doxycycline with 5 mg/ml low molecular weight heparin. Group 4 (n=8) received balanced salt solution (control). The drops were applied topically immediately after cauterization; treatments were administered two times per day for seven days.
The presence of new vessels (neovascularization) and the extent of new vessel formation was assessed by slit lamp photography and histology. Inhibition of vessel proliferation was evaluated by measuring vessel progression from the outer cornea (corneal limbus) into the cornea. As previously described, it will be appreciated that any reduction of new vessel proliferation and/or regression of existing vessels is therapeutic, and that complete inhibition and/or regression is not required, and also that reduction includes regression of existing vessels.
The extent of corneal neovascularization was determined by slit lamp microscopy with photography (SL-7E, Topcon, Tokyo Japan) on day seven after cauterization. The animals were euthanized in a carbon dioxide chamber under deep general anesthesia. […]
Corneal neovascularization was assessed by scanning (Cano scan 9900F, Canon, Tokyo Japan) the slit lamp photographs into high resolution digital images. […] The percentage area of the cornea covered by the corneal scar in each eye was also determined. […]
Statistical analysis was performed using Statistical Analysis System (SPSS 11.5) software. The difference between the groups was determined using Mann-Whitney U Analysis test; a p value less than 0.05 was considered significant.

[2] = tested on: corneal neovascularization; experiment: Silver nitrate cauterization, single agents, percent area of neovascularization and scar (Example 4); format: in vivo, Long Evans pigmented rats; conditions: for NV area compared to the control group, statistical significance (in words): GLM with Tukey's studentized range test, p≦0.05; for Percent Area Of Neovascularization Mean +/− SD: day 7, topical two times daily for 7 days, LMWH 10 mg/ml, ascomycin 50 μg/ml, flurbiprofen 0.03%, doxycycline 20 mg/ml, triamcinolone acetonide 4 mg/ml, normal saline 74.9 +/− 9.2; for mean of percent area (neovascularization): day 7, same treatments, control group 74.9%±9.2%, FIG. 6; for neovascularization on slit lamp photograph (in words): seven days after induction of corneal burn, FIGS. 8A-8C
[3] = tested on: corneal neovascularization; experiment: Silver nitrate corneal burn in rat eyes: graded inhibition of neovascularization (Example 1); format: in vivo; conditions: single agents topically applied twice a day; doxycycline about 1 to about 20 mg/ml, LMWH about 10 mg/ml, triamcinolone about 4 mg/ml; compared to controls
Procedure: Artificial corneal burns were induced in rat eyes to determine the effects of doxycycline, steroids, and low molecular weight heparin, alone and in combinations, on corneal neovascularization.
The presence of new vessels (neovascularization) and the extent of new vessel formation was assessed by split lamp photography and histology. Inhibition of vessel proliferation was evaluated by measuring vessel progression from the outer cornea (corneal limbus) into the cornea. A numerical rating system was used to quantitate the degree of inhibition (+, ++, and +++ inhibition), with “+ inhibition” indicating inhibition one-third of the distance from the limbus of the cornea to the center; “++ inhibition” indicating inhibition two-thirds of the distance from the limbus to the center; “+++ inhibition” indicating complete inhibition of vessels between the limbus and the center; and the designation “± inhibition” indicating an intermediate degree of inhibition (e.g, less than +, ++, or +++).

| Molecule | effect on corneal neovascularization as individual agents (in words) [1] | NV area compared to the control group, statistical significance (in words) [2] | Percent Area Of Neovascularization Mean +/− SD [2] | mean of percent area (neovascularization) [2] | neovascularization on slit lamp photograph (in words) [2] | inhibition of neovascularization [3] | effect on corneal neovascularization as individual agent (in words) ([1]; doxycycline at 10 mg/ml) | effect on corneal neovascularization as individual agent (in words) ([1]; doxycycline at 20 mg/ml, p<0.05%) | histopathology of corneal stroma (in words) ([2]; H&E 100X, FIG. 9B) |
| --- | --- | --- | --- | --- | --- | --- | --- | --- | --- |
| CC(C(=O)[O-])c1ccc(-c2ccccc2)c(F)c1.O.O.[Na+] (racemic) [flurbiprofen, sodium (±)-2-(2-fluoro-4-biphenylyl)-propionate dihydrate] | did not significantly decrease | no statistically significant differences | 50.6 +/− 18.7% | 50.5%±18.7% | neovascularization is quite prominent | – | – | – | – |
| CC[C@@H]1/C=C(\C)C[C@H](C)C[C@H](OC)[C@H]2O[C@@](O)(C(=O)C(=O)N3CCCC[C@H]3C(=O)O[C@H](/C(C)=C/[C@@H]3CC[C@@H](O)[C@H](OC)C3)[C@H](C)[C@@H](O)CC1=O)[C@H](C)C[C@@H]2OC [ascomycin] | – | no statistically significant differences | – | 56.0%±22.4% | – | – | – | – | – |
| CC1c2cccc(O)c2C(=O)C2=C(O)C3(O)C(=O)C(C(N)=O)=C(O)C(N(C)C)C3C(O)C21.O (stereo not shown) [doxycycline, 4-(dimethylamino)-1,4,4a,5,5a,6,11,12a-octahydro3,5,10,12,12a-pentahydroxy-6-methyl-1,11-dioxo-2-naphthacenecarboxamide monohydrate] | – | significant reduction | 35.5 +/− 29.1% | 35.5%±29.1% | neovascularization is less prominent than in control group | + | not | did significantly inhibit | – |
| CC1(C)O[C@@H]2C[C@H]3[C@@H]4CCC5=CC(=O)C=C[C@]5(C)[C@@]4(F)[C@@H](O)C[C@]3(C)[C@]2(C(=O)CO)O1 [triamcinolone, 9α-fluoro-11 13,16a,17,21 tetra hydroxy-pregna-1,4diene-3,20-dione cyclic 16,17-acetal with acetone] | – | significant reduction | 13.3 +/− 7.2% | 13.3%±7.1% | relatively small neovascular area | ++ | – | – | avascular stroma |
| low molecular weight heparin | did not significantly decrease | no statistically significant differences | 66.7 +/− 9.9% | 66.7%±9.9% | – | + | – | – | – |
